Series [1] is described as follows: Antiproliferative activity against human PNT1A cells assessed as inhibition of cell growth measured after 48 hrs by Alamar blue dye based assay. Format: toxicity. For orientation: Alamar Blue is a resazurin reagent that responds to reducing activity.
Series [2] deals with MCF7. Put plainly: Antiproliferative activity against human MCF7 cells assessed as inhibition of cell growth measured after 48 hrs by Alamar blue dye based assay. Type of series: functional. The settings on record: MCF7, 48 h.
In series [3] the test system is MDA-MB-231. Put plainly: Antiproliferative activity against human MDA-MB-231 cells assessed as inhibition of cell growth measured after 48 hrs by Alamar blue dye based assay. Format: functional. The note with it: MDA-MB-231, 48 h.
Series [4] deals with PNT1A. Put plainly: Induction of apoptosis in human PNT1A cells assessed as live cells incubated for 48 hrs by annexin V and 7-AAD staining based flow cytometry analysis (reference value: 99.69%). Type of series: functional. On the technique in general: Flow cytometry measures light scatter and fluorescence of single cells or particles in a stream.
In series [5] the test system is PNT1A. In words: Induction of apoptosis in human PNT1A cells assessed as early apoptotic cells incubated for 48 hrs by annexin V and 7-AAD staining based flow cytometry analysis (reference value: 0.04%). Format: functional.
The subject of series [6] is PNT1A. Put plainly: Induction of apoptosis in human PNT1A cells assessed as late apoptotic cells incubated for 48 hrs by annexin V and 7-AAD staining based flow cytometry analysis (reference value: 0.04%). Format: functional.
In series [7] the test system is PNT1A. Put plainly: Induction of apoptosis in human PNT1A cells assessed as necrosis incubated for 48 hrs by annexin V and 7-AAD staining based flow cytometry analysis (reference value: 0.22%). Type of series: functional.
Series [8] concerns MDA-MB-231. Put plainly: Induction of apoptosis in human MDA-MB-231 cells assessed as live cells incubated for 48 hrs by annexin V and 7-AAD staining based flow cytometry analysis (reference value: 99.61%). Format: functional.
In series [9] the test system is MDA-MB-231. In words: Induction of apoptosis in human MDA-MB-231 cells assessed as early apoptotic cells incubated for 48 hrs by annexin V and 7-AAD staining based flow cytometry analysis (reference value: 0.18%). Type of series: functional.
Series [10] relates to MDA-MB-231. In words: Induction of apoptosis in human MDA-MB-231 cells assessed as late apoptotic cells incubated for 48 hrs by annexin V and 7-AAD staining based flow cytometry analysis (reference value: 0.12%). Format: functional.
For series [11], the system named is MDA-MB-231. Put plainly: Induction of apoptosis in human MDA-MB-231 cells assessed as necrosis incubated for 48 hrs by annexin V and 7-AAD staining based flow cytometry analysis (reference value: 0.09%). Type of series: functional.
The test system of series [12] is MCF7. In words: Induction of apoptosis in human MCF7 cells assessed as live cells incubated for 48 hrs by annexin V and 7-AAD staining based flow cytometry analysis (reference value: 99.14%). Format: functional.
The subject of series [13] is MCF7. In words: Induction of apoptosis in human MCF7 cells assessed as early apoptotic cells incubated for 48 hrs by annexin V and 7-AAD staining based flow cytometry analysis (reference value: 0.14%). Type of series: functional.
Series [14] relates to MCF7. In words: Induction of apoptosis in human MCF7 cells assessed as late apoptotic cells incubated for 48 hrs by annexin V and 7-AAD staining based flow cytometry analysis (reference value: 0.68%). Type of series: functional.
The test system of series [15] is MCF7. In words: Induction of apoptosis in human MCF7 cells assessed as necrosis incubated for 48 hrs by annexin V and 7-AAD staining based flow cytometry analysis (reference value: 0.03%). Format: functional.
The target of the next series is T1, Aromatase (Homo sapiens, UniProt P11511).
T1 sequence (P11511 whole entry): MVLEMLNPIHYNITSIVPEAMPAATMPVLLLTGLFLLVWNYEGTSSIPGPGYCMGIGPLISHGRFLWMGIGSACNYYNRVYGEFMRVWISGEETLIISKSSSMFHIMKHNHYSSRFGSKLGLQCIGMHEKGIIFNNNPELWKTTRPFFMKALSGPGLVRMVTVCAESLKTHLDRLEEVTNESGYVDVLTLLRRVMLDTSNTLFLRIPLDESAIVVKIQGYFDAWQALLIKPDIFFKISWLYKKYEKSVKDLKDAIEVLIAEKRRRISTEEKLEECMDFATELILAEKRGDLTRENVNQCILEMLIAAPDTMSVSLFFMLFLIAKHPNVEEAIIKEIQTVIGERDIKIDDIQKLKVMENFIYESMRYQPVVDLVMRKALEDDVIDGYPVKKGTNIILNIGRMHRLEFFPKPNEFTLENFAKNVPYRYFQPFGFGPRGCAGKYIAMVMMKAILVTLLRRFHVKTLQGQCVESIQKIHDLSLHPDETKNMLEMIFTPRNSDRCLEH
In words: Inhibition of human Aromatase by fluorimetric assay.

The nature of series [16]: Drug localization in mitochondria of human MDA-MB-231 cells at 2 uM incubated for 45 mins by MitoTracker dye based confocal laser scanning microscopic analysis. Type of series: ADME. The settings on record: mda-mb-231, 0.75 h.
A short description of series [17]: Genotoxicity in human MCF7 cells assessed as abnormal tail nuclei measured after 48 hrs by ethidium bromide staining based fluorescent microscopic analysis. The settings on record: mcf7, 48 h. Type of series: toxicity, cell-based.
A short description of series [18]: Genotoxicity in human MCF7 cells assessed as appearance of damaged DNA structures measured after 48 hrs by ethidium bromide staining based fluorescent microscopic analysis. Format: toxicity, cell-based. The note with it: mcf7, 48 h.
A short description of series [19]: Genotoxicity in human MDA-MB-231 cells assessed as appearance of damaged DNA structures measured after 48 hrs by ethidium bromide staining based fluorescent microscopic analysis. Type of series: toxicity, cell-based. The settings on record: mda-mb-231, 48 h.
Series [20] in a line: Genotoxicity in human MDA-MB-231 cells assessed as abnormal tail nuclei measured after 48 hrs by ethidium bromide staining based fluorescent microscopic analysis. The settings on record: mda-mb-231, 48 h. Type of series: toxicity, cell-based.

From ChEMBL document CHEMBL5523675, “Novel mitochondrial and DNA damaging fluorescent Calix[4]arenes bearing isatin groups as aromatase inhibitors: Design, synthesis and anticancer activity” (Bioorg Med Chem, 2024) come the findings set out here.

Molecules are shown by their SMILES.

Usually IC50 stands for the midpoint of a concentration-inhibition curve.

On to `C[n+]1ccc(/C=C/c2cc3c(O)c(c2)Cc2cc(C(C)(C)C)cc(c2OCCCn2cc(CN4C(=O)C(=O)c5cc(Cl)ccc54)nn2)Cc2cc(/C=C/c4cc[n+](C)cc4)cc(c2O)Cc2cc(C(C)(C)C)cc(c2OCCCn2cc(CN4C(=O)C(=O)c5cc(Cl)ccc54)nn2)C3)cc1.[I-].[I-]`, for which the IC50 at 48 h in [1] is 32.9 µM. In addition, the IC50 with MCF7 [2] was 8.83 µM; in the series with MDA-MB-231 [3] it was 3.32 µM; against Aromatase, 0.104 µM. Further, in the series with PNT1A [4], the Live cells is given as 97.91%. For the same compound, the Activity amounted to 1.74% in the series on PNT1A [5]; 0.25% in the series on PNT1A [6]; 0.11% with PNT1A [7]; 83.4% in the series on MDA-MB-231 [8]; 0.23% in the series on MDA-MB-231 [9]; 2.74% in the series with MDA-MB-231 [10]. For the same compound, the Activity in the series on MDA-MB-231 [11] is 13.63%; in the series with MCF7 [12], 53.45%; with MCF7 [13] it was 4.56%; in the series on MCF7 [14], 36.24%; with MCF7 [15] it was 5.75%; in [17] it was “Toxic”. Also, the Activity entry in series [18], in [19] and in [20] was “Toxic” in each case. For the same compound, the Drug uptake result in series [16] is listed as “Active”.
